Biological target: T1, Recombinant HCV polymerase (Hepatitis C virus genotype 1b, UniProt P26663)
T1 construct: 2.5 pmoles (0.15 μg) HCV polymerase protein
Test: HCV Polymerase Inhibition Assay
Assay type: biochemical
Conditions: primer/template-directed transcription, 30 minutes at 30° C.; category symbol
Method in brief: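 Recombinant genotype 1b polymerase (2.5 pmol) extended biotin-dG12 on poly(rC)300 with 1 μM GTP plus α-32P-GTP, pH 7.2, 30 min at 30 °C, 1% DMSO final; DE-filter-bound product counted. IC50 fitted from triplicate cpm, refitted with enzyme-concentration (30 nM) tight-binding equation when below 200 nM.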

T1 sequence (P26663 2420-3010): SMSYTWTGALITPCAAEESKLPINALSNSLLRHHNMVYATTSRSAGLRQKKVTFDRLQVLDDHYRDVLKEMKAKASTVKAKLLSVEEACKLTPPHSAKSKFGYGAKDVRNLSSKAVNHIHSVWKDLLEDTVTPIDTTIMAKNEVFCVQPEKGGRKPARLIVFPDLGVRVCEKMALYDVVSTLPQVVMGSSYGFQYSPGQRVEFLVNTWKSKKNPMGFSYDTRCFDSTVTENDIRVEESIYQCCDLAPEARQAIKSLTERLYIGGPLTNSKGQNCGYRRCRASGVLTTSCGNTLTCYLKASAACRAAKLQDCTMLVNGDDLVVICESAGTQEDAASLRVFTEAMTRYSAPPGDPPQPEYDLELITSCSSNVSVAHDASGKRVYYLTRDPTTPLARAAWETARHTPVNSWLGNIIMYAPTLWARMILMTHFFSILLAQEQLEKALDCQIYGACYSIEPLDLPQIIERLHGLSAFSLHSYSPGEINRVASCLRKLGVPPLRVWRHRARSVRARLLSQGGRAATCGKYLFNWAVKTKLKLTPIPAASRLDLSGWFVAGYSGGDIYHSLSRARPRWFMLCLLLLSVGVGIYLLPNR

Row | Molecule | IC50 [µM]
1 | COc1ccc(CCC2(C3CCCC3)CC(=O)C(C(=O)c3ccccc3)C(=O)O2)c(OC)c1 (stereo not drawn) [Example 175, 3-Benzoyl-6-cyclopentyl-6-[2-(2,4-dimethoxy-phenyl)-ethyl]-dihydro-pyran-2,4-dione] | 10 to 50
2 | COc1ccc(CCC2(C3CCCC3)CC(O)=C(Sc3nc(O)c4cc[nH]c4n3)C(=O)O2)cc1 (stereo not drawn) [Example 113, 6-Cyclopentyl-4-hydroxy-3-[(4-hydroxy-7H-pyrrolo[2,3-d]pyrimidin-2-yl)thio]-6-[2-(4-methoxyphenyl)ethyl]-5,6-dihydro-2H-pyran-2-one] | < 1
3 | O=C1C=C(O)CC(CCC2CCCC2)(C2CCCC2)O1 (stereo not drawn) [Example 150, 6-Cyclopentyl-6-(2-cyclopentyl-ethyl)-4-hydroxy-5,6-dihydro-pyran-2-one] | 10 to 50
4 | CC(=O)Nc1cc(C(C)(C)C)c(SC2=C(O)CC(CCc3ccc(O)cc3)(C3CCCC3)OC2=O)cc1C (racemic) [Example 140, (+/−)N-(5-tert-butyl-4-{6-cyclopentyl-4-hydroxy-6-[2-(4-hydroxy-phenyl)-ethyl]-2-oxo-5,6-dihydro-2H-pyran-3-ylsulfanyl}-2-methyl-phenyl)-acetamide] | 1 to 10
5 | COc1cccc(CC2C(=O)CC(CCc3ccc(OC)cc3OC)(C3CCCC3)OC2=O)c1 (stereo not drawn) [Example 162, 6-Cyclopentyl-6-[2-(2,4-dimethoxy-phenyl)-ethyl]-3-(3-methoxy-benzyl)-dihydro-pyran-2,4-dione] | 1 to 10
6 | 6-[2-(3-Chloro-4-isopropoxy-phenyl)-ethyl]-6-cyclopentyl-4-hydroxy-3-(thiazol-2-ylsulfanyl)-5,6-dihydro-pyran-2-one [Example 132] | < 1
7 | Cc1noc(C)c1COc1ccc(CCC2(C3CCCC3)CC(O)=CC(=O)O2)cc1 (stereo not drawn) [Example 49, 6-Cyclopentyl-6-(2-{4-[(3,5-dimethylisoxazol-4-yl)methoxy]phenyl}ethyl)-4-hydroxy-5,6-dihydro-2H-pyran-2-one] | 10 to 50
8 | O=C1CC(=O)OC(CCc2ccc(F)c(Cl)c2)(C2CCCC2)C1 (stereo not drawn) [Example 31, 6-[2-(3-Chloro-4-fluoro-phenyl)-ethyl]-6-cyclopentyl-dihydro-pyran-2,4-dione] | 1 to 10
9 | Cc1cc(SC2=C(O)CC(CCc3ccco3)(C(C)C)OC2=O)c(C(C)(C)C)cc1CO (stereo not drawn) [Example 134] | 1 to 10
10 | O=C1C=C(O)CC(CCCC2CCCCC2)(C2CCCC2)O1 (stereo not drawn) [Example 22, 6-(3-Cyclohexyl-propyl)-6-cyclopentyl-4-hydroxy-5,6-dihydro-pyran-2-one] | 10 to 50
11 | Cc1noc(COc2ccc(CCC3(C4CCCC4)CC(O)=CC(=O)O3)cc2)n1 (stereo not drawn) [Example 48, 6-Cyclopentyl-6-(2-{4-[(3-methyl-1,2,4-oxadiazol-5-yl)methoxy]phenyl}ethyl)4-hydroxy-5,6-dihydro-2H-pyran-2-one] | 10 to 50
12 | COc1c(F)cc(CCC2(C3CCCC3)CC(=O)CC(=O)O2)cc1F (stereo not drawn) [Example 43, 6-Cyclopentyl-6-[2-(3,5-difluoro-4-methoxy-phenyl)-ethyl]-dihydro-pyran-2,4-dione] | 1 to 10
13 | COc1ccc(Oc2cccc(CCC3(C4CCCC4)CC(O)=CC(=O)O3)c2)cc1 (stereo not drawn) [Example 45, 6-cyclopentyl-6-{2-[3-(4-methoxyphenoxy)phenyl]ethyl}-4-hydroxy-5,6-dihydro-2H-pyran-2-one] | 10 to 50
14 | COc1cc(OC)c(CCC2(C3CCCC3)CC(O)=C(Cl)C(=O)O2)cc1Cl (stereo not drawn) [Example 90] | < 1
15 | COc1ccc(CCC2(C3CCCC3)CC(O)=C(Sc3nc(C)c(CC(=O)O)s3)C(=O)O2)cc1 (stereo not drawn) [Example 112, [2-({6-Cyclopentyl-4-hydroxy-6-[2-(4-methoxyphenyl)ethyl]-2-oxo-5,6-dihydro-2H-pyran-3-yl}thio)-4-methyl-1,3-thiazol-5-yl]acetic acid] | < 1
16 | O=C1CC(=O)OC(CCc2ccc(N3CCCC3=O)cc2)(C2CCCC2)C1 (stereo not drawn) [Example 79, 6-Cyclopentyl-6-{2-[4-(2-oxo-pyrrolidin-1-yl)-phenyl]-ethyl}-dihydro-pyran-2,4-dione] | 1 to 10
17 | COc1ccc(CCC2(C3CCCC3)CC(=O)C(C(=O)Cc3ccccc3)C(=O)O2)c(OC)c1 (stereo not drawn) [Example 169, 6-Cyclopentyl-6-[2-(2,4-dimethoxy-phenyl)-ethyl]-3-phenylacetyl-dihydro-pyran-2,4-dione] | 10 to 50
18 | CCOC(=O)c1c[nH]c(SC2=C(O)CC(CCc3ccc(OC)cc3)(C3CCCC3)OC2=O)n1 (stereo not drawn) [Example 119, Ethyl 2-({6-cyclopentyl-4-hydroxy-6-[2-(4-methoxyphenyl)ethyl]-2-oxo-5,6-dihydro-2H-pyran-3-yl}thio)-1H-imidazole-4-carboxylate] | 1 to 10

Row | Molecule | IC50 [µM]
19 | COc1cc(OC)c(CCC2(C3CCCC3)CC(O)=C(Sc3nc[nH]n3)C(=O)O2)cc1Cl (stereo not drawn) [Example 93, 6-[2-(5-Chloro-2,4-dimethoxyphenyl)ethyl]-6-cyclopentyl-4-hydroxy-3-(1H-1,2,4-triazol-3-ylthio)-5,6-dihydro-2H-puran-2-one] | < 1
20 | COc1ccc(CCC2(C3CCCC3)CC(=O)CC(=O)O2)cn1 (stereo not drawn) [Example 8, 6-cyclopentyl-6-[2-(6-methoxypyridin-3-yl)ethyl]dihydro-2H-pyran-2,4(3H)-dione] | 10 to 50
21 | COc1ccc(CCC2(C3CCCC3)CC(O)=C(Sc3nnc(O)n3C)C(=O)O2)cc1 (stereo not drawn) [Example 117, 6-Cyclopentyl-4-hydroxy-3-[(5-hydroxy-4-methyl-4H-1,2,4-triazol-3-yl)thio]-6-[2-(4-methoxyphenyl)ethyl]-5,6-dihydro-2H-pyran-2-one] | 1 to 10
22 | CC(=O)c1ccc(CCC2(C3CCCC3)CC(=O)CC(=O)O2)cc1 (stereo not drawn) [Example 63, 6-[2-(4-Acetyl-phenyl)-ethyl]-6-cyclopentyl-dihydro-pyran-2,4-dione] | 1 to 10
23 | Cc1cc(CCC2(C3CCCC3)CC(O)=CC(=O)O2)ccc1C1(C)OCCO1 (stereo not drawn) [Example 18, 6-Cyclopentyl-4-hydroxy-6-{2-[3-methyl-4-(2-methyl-1,3-dioxolan-2-yl)-phenyl]-ethyl}-5,6-dihydro-pyran-2-one] | 1 to 10
24 | CC(C)(C)OC(=O)NCC(C)(C)c1cccc(CCC2(C3CCCC3)CC(=O)CC(=O)O2)c1 (stereo not drawn) [Example 14, (2-{3-[2-(2-Cyclopentyl-4,6-dioxo-tetrahydro-pyran-2-yl)-ethyl]-phenyl}-2-methyl-propyl)-carbamic acid tert-butyl ester] | 10 to 50
25 | O=C1CC(=O)OC(CCc2ccc(OC3CCCC3)c(F)c2)(C2CCCC2)C1 (stereo not drawn) [Example 77, 6-Cyclopentyl-6-[2-(4-cyclopentyloxy-3-fluoro-phenyl)-ethyl]-dihydro-pyran-2,4-dione] | 1 to 10
26 | Cc1cc(SC2=C(O)CC(CCc3ccc(O)cc3)(C3CCCCC3)OC2=O)c(C(C)(C)C)cc1OS(=O)(=O)c1ccc(C#N)cc1 (stereo not drawn) [Example 139, 4-Cyano-benzenesulfonic acid 5-tert-butyl-4-{6-cyclohexyl-4-hydroxy-6-[2-(4-hydroxy-phenyl)-ethyl]-2-oxo-5,6-dihydro-2H-pyran-3-ylsulfanyl}-2-methyl-phenyl ester] | 1 to 10
27 | COc1ccc(CCC2(C3CCCC3)CC(O)=C(Sc3nnnn3-c3ccc(O)cc3)C(=O)O2)cc1 (stereo not drawn) [Example 114, 6-Cyclopentyl-4-hydroxy-3-([1-(4-hydroxyphenyl)-1H-tetraazol-5-yl]thio)-6-[2-(4-methoxyphenyl)ethyl]-5,6-dihydro-2H-pyran-2-one] | < 1
28 | Cc1cc(SC2=C(O)CC(C)(C)OC2=O)c(C(C)(C)C)cc1N [Example 89, 3-[(4-amino-2-tert-butyl-5-methylphenyl)thio]-4-hydroxy-6,6-dimethyl-5,6-dihydro-2H-pyran-2-one] | > 50
29 | COc1ccc(CCC2(C3CCCC3)CC(O)=C(Sc3n[nH]c(-c4ccncc4)n3)C(=O)O2)cc1 (stereo not drawn) [Example 111, 6-Cyclopentyl-4-hydroxy-6-[2-(4-methoxyphenyl)ethyl]-3-[(5-pyridin-4-yl-1H-1,2,4-triazol-3-yl)thio]-5,6-dihydro-2H-pyran-2-one] | < 1
30 | O=C1CC(=O)OC(CCc2ccc(C(=O)N3CC[C@H](O)C3)cc2)(C2CCCC2)C1 (stereo in doubt) [Example 69, 6-Cyclopentyl-6-{2-[4-(3-hydroxy-pyrrolidine-1-carbonyl)-phenyl]-ethyl}-dihydro-pyran-2,4-dione] | 10 to 50
31 | COc1ccc(CCC2(C3CCCC3)CC(=O)C(C(C)=O)C(=O)O2)cc1 (stereo not drawn) [Example 168, 3-Acetyl-6-cyclopentyl-6-[2-(4-methoxy-phenyl)-ethyl]-dihydro-pyran-2,4-dione] | 10 to 50
32 | Cc1cc(SC2=C(O)C[C@](CCc3cccc(O)c3)(C3CCCC3)OC2=O)c(C(C)(C)C)cc1CO [Example 153, (R)-3-(2-tert-butyl-4-hydroxymethyl-5-methyl-phenylsulfanyl)-6-cyclopentyl-4-hydroxy-6-[2-(3-hydroxy-phenyl)-ethyl]-5,6-dihydro-pyran-2-one] | < 1
33 | CC1(c2ccc(CCC3(C4CCCC4)CC(=O)CC(=O)O3)cc2Cl)CC(=O)CC(=O)O1 (stereo not drawn) [Example 82, 6-Cyclopentyl-[6-(2-Chloro-phenyl)-6-methyl-dihydro-pyran-2,4-dione]-dihydro-pyran-2,4-dione] | < 1
34 | C=CCOCc1ccccc1CCC1(C2CCCC2)CC(=O)CC(=O)O1 (stereo not drawn) [Example 5, 6-[2-(2-Allyloxymethylphenyl)ethyl]-6-cyclopentyldihydropyran-2,4-dione] | 10 to 50
35 | CCCCN(C1=C(O)C[C@@](CCc2cccc(O)c2)(C2CCCC2)OC1=O)c1ccccc1 [Example 157, (S)-3-(butyl-phenyl-amino)-6-Cyclopentyl-4-hydroxy-6-[2-(3-hydroxy-phenyl)-ethyl]-5,6-dihydro-pyran-2-one] | 1 to 10
36 | COc1ccc(CCC2(C3CCCC3)CC(=O)C(Oc3ccccc3)C(=O)O2)c(OC)c1 (stereo not drawn) [Example 163, 6-Cyclopentyl-6-[2-(2,4-dimethoxy-phenyl)-ethyl]-3-phenoxy-dihydro-pyran-2,4-dione] | 10 to 50

— patent US7115658B2 (priority 2002, dated 2006)
